Measurements: US12285393B2, “Roles of modulators of intersectin-Cdc42 signaling in Alzheimer's disease” (priority 2017, dated 2025)

How the values were obtained:
[1] = Solubility profile by optical density; type: physicochemical; details: for solubility: in DM19
Text: ZCL278, ZCL279, and ZCL367 were all tested for solubility in the 5 FDA approved solvents to be used in humans. […] Results are shown below in Tables 2-4. Ratio refers to the optical density of the solution comprising the modulator compound/the optical density of the carder/solvent alone.

C57BL/6 mice = assay: Toxicity experiment, I.P. injection; type: in vivo; details: 5 minutes to 24 hours
Protocol: (§1) ZCL 278 Toxicity Experiment: Individual C57BL/6 mice of 4-6 months of age from Jackson Laboratory (Bar Harbor, Maine, United States of America) were submitted to ZCL278 treatment for 5 minutes, 30 minutes, 2 hours and 24 hours. The dosage of ZCL278 for each mouse was 0.8 mg/g body weight delivered via intraperitoneal (I.P.) injection of a 15 mg/ml solution of ZCL278 was dissolved in the sesame oil (10% DMSO).
as §1, with “279” for “278”, “ZCL279” for “ZCL278”, “0.6” for “0.8”
ZCL367 Toxicity Experiment: Individual C57BL/6 mice of 4-6 months of age from Jackson Laboratory (Bar Harbor, Maine, United States of America) were submitted to ZCL367 treatment for 1 hour or 2 weeks. The dosage of ZCL367 for each time period was 0.4 mg/g body weight or 0.8 mg/g body weight, delivered via I.P. injection. […] Mice were sacrificed after end of 1 hour or 2 weeks.

mice = assay: Long-term survival after one injection; type: in vivo; details: mouse, in vivo
Protocol: Long-term Survival. Groups of 10 mice were treated with one injection of ZCL278 (up to 0.8 mg/g), ZCL279 (up to 0.6 mg/g), or ZCL367 (up to 1.6 mg/g) to examine potential lethal dosage (the maximal dosage tested when no mice died). […] Durations longer than 3 months have not been tested. As a reference, working dosage for the behavioral assessment described below used 20 ug/g for injection, […] than the highest dosage of 0.8 mg/g tested in the long-term survival experiment.

[2] = test system: microtubule-associated tau; assay: Tau phosphorylation in the dentate gyrus (antibody AT8 immunostaining); type: in vivo, mice
Protocol: Tissue preparation: Mice were deeply anesthetized with 3% isoflourane vapor and euthanized by cervical dislocation. Brain tissues were harvested, and then either snap frozen for Western Blot analysis or fixed in 4% paraformaldehyde overnight for immunohistochemistry (IHC) analysis. Fixed brain tissues were washed with phosphate-buffered saline (PBS) and moved to cryoprotectant (30% sucrose in PBS) at 4° C. Once sunk in the cryoprotectant, brain tissues were subsequently embedded in the optimal cutting temperature compound (O.C.T) and rapidly frozen with chilled isopentane. Then, 8˜30 μm thickness of cryostate section was applied to brain tissues, 30 μm sections were immersed in the PBS and store at 4° C. refrigerator, and 8 μm sections were store at −80° C. refrigerator.
Immunohistochemistry analysis: All sections were first treated with 1% H2O2 in PBS for 20 minutes at room temperature, then incubated with 0.5% Triton X-100 for 30 minutes and blocked for 30 minutes at room temperature. Brain tissues were incubated with primary antibodies from Table 6, below. […] All sections were eventually dehydrated in 95% ethanol and mounted on coverslips for light microscopy (Carl Zeiss, Thornwood, New York, United States of America).
Methods: Brain tissues collected from each treatment group of mice from the behavior studies were subjected to pathological analysis (e.g., immunohistochemical analysis, as described above in Example 5). […] Growth cone dynamics and spine motility were either recorded with time-lapse microscopy or stained by using the fluorescein isothiocyanate (FITC) or Cyanine Dye 3 (Cy3)-conjugated Phalloidin.

[3] = Dimethyl Sulfoxide (DMSO), RT-3 h
[4] = Polyethylene Glycol300 (PEG-300), 30%, RT-3 h
[5] = 1,2-Propanediol, 40%, 37° C., 1 hour
[6] = Dimethyl Sulfoxide (DMSO), 37° C., 1 hour
[7] = Pluronic F-68, 10%, 37° C., 1 hour
[8] = Polyethylene Glycol300 (PEG-300), 30%, 37° C., 1 hour

## Cc1cc(C)nc(NS(=O)(=O)c2ccc(NC(=S)NC(=O)COc3ccc(Br)cc3Cl)cc2)n1 [ZCL278, 4-(3-(2-(4-bromo-2-chloro-phenoxy)-acetyl)-thioureido)-N-(4,6-dimethylpyrimidin-2-yl)-benzenesulfonamide]
[1]; 1,2-Propanediol, 40%, RT-3 h
  Ratio (optical density solution/solvent alone): 3.154
  optical density of solution: 0.123
[1]; [3]
  Ratio (optical density solution/solvent alone): 1.119
  optical density of solution: 0.047
[1]; Pluronic F-68, RT-3 h
  Ratio (optical density solution/solvent alone): 2.675
  optical density of solution: 0.107
[1]; [4]
  Ratio (optical density solution/solvent alone): 2.275
  optical density of solution: 0.091
[1]; Sesame Oil, RT-3 h
  Ratio (optical density solution/solvent alone): 1.395
  optical density of solution: 0.06
[1]; Sterile Water, RT-3 h
  Ratio (optical density solution/solvent alone): 2.211
  optical density of solution: 0.084
[1]; Tween 80, 0.4%, RT-3 h
  Ratio (optical density solution/solvent alone): 1.725
  optical density of solution: 0.069
[1]; dPBS, RT-3 h
  Ratio (optical density solution/solvent alone): 1.795
  optical density of solution: 0.07
[1]
  solubility: completely soluble
C57BL/6 mice; 0.8 mg/g body weight I.P.
  gross anatomic toxicity (plasma, liver, kidney and brain tissues): no gross anatomic toxicity
mice
  Lethal Dosage: 0.8 mg/g
  Longest Dosing Duration: 3 months
[2]; 3×Tg AD mice
  phosphorylation of microtubule-associated tau in the dentate gyrus: not evident
[2]; WT mice
  phosphorylation of microtubule-associated tau in the dentate gyrus: no evidence

## O=S(=O)(Nc1ccccc1O)c1ccc2oc3ccc(S(=O)(=O)Nc4ccccc4O)cc3c2c1 [ZCL279, N^2,N^8-bis(2-hydroxyphenyl)dibenzo[b,d]furan-2,8-disulfonamide]
[1]; [5]
  Ratio (optical density solution/solvent alone): 2.359
  optical density of solution: 0.092
[1]; [6]
  Ratio (optical density solution/solvent alone): 1.071
  optical density of solution: 0.045
[1]; [7]
  Ratio (optical density solution/solvent alone): 2.667
  optical density of solution: 0.104
[1]; [8]
  Ratio (optical density solution/solvent alone): 3.762
  optical density of solution: 0.158
[1]; Sesame Oil, 37° C., 1 hour
  Ratio (optical density solution/solvent alone): 1.872
  optical density of solution: 0.088
[1]; Sterile Water, 37° C., 1 hour
  Ratio (optical density solution/solvent alone): 6.158
  optical density of solution: 0.234
[1]; Tween-80, 0.4%, 37° C., 1 hour
  Ratio (optical density solution/solvent alone): 3.105
  optical density of solution: 0.118
[1]; dPBS, 37° C., 1 hour
  Ratio (optical density solution/solvent alone): 3.846
  optical density of solution: 0.15
[1]
  solubility: completely soluble
C57BL/6 mice; 0.6 mg/g body weight I.P.
  gross anatomic toxicity (plasma, liver, kidney and brain tissues): no gross anatomic toxicity
mice
  Lethal Dosage: 0.6 mg/g
  Longest Dosing Duration: 3 months
[2]; 3×Tg AD mice
  phosphorylation of microtubule-associated tau in the dentate gyrus: not evident
[2]; WT mice
  phosphorylation of microtubule-associated tau in the dentate gyrus: no evidence
